Assay results as given in patent US8119563B2, “N-substituted azacycles” (FMC Corporation, priority 2003, dated 2012).

Tested on: tobacco budworm (Heliothis virescens [Fabricius])
Assay: surface-treated diet test, insecticidal activity against tobacco budworm
Assay type: in vivo
Set-up: mortality: concentration or dose not given beside the values
Settings: 0.25 millimoles of candidate insecticide on the surface of the diet, second instar larvae, five-day exposure
How it was run: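 Wheat germ artificial diet surface-treated with compound from 50 mM DMSO stock diluted 1:7 in 1:1 water/acetone (0.25 millimolar on diet), or lower-rate dilutions; DMSO-only controls. One second-instar larva per well, 25° C, 60% RH, 14 h light, five days; percent weight inhibition versus untreated and percent mortality scored.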

[1] = compared to total number of insects infested
[2] = inhibition of insect weight relative to untreated controls

Compound	Percent Mortality [1] [%]	Percent Growth Inhibition [2] [%]	mortality (Heliothis virescens, 120 h, compared to total number of insects infested, read-out: Percent Mortality) [%]	pest or weed control at 0.25 mmol/well (Heliothis virescens, 120 h, inhibition of insect weight relative to untreated controls, read-out: Percent Growth Inhibition) [%]
[O-][N+]1(Cc2ccc(Oc3ncccn3)cc2)CCC(O)(C(O)(c2ccc(OC(F)(F)F)cc2)c2ccc(OC(F)(F)F)cc2)CC1 (stereo not drawn) [Compound 422]	100	100		
[O-][N+]1(Cc2ccc(Oc3ccccn3)cc2)CCC(O)(C(c2ccc3c(c2)OC(F)(F)O3)c2ccc3c(c2)OC(F)(F)O3)CC1 (stereo not drawn) [Compound 464]	100	100		
O=S(=O)([O-])CCCO.OC1(C(c2ccc(OC(F)(F)F)cc2)c2ccc(OC(F)(F)F)cc2)CC[N+](O)(Cc2ccc(Oc3ccccn3)cc2)CC1 (stereo not drawn) [Compound 500]	100	100		
OC1(C(c2ccc(OC(F)(F)F)cc2)c2ccc(OC(F)(F)F)cc2)CCN(Cc2ccc(C=NOCC(F)(F)F)cc2)CC1 [Compound 301]	100	100		
O=C([O-])CCCCCC(=O)O.OC1(C(c2ccc(OC(F)(F)F)cc2)c2ccc(OC(F)(F)F)cc2)CC[N+](O)(Cc2ccc(Oc3ccccn3)cc2)CC1 (stereo not drawn) [Compound 514]	100	100		
COc1cc(C[N+]2([O-])CCC(O)(C(c3ccc(OC(F)(F)F)cc3)c3ccc(OC(F)(F)F)cc3)CC2)ccc1Oc1ccccn1 (stereo not drawn) [Compound 465]	100	100		
Cc1cc(C(c2ccc(OC(F)(F)F)cc2)C2(O)CCN(Cc3ccc(Oc4ccccn4)cc3)CC2)ccc1Cl (stereo not drawn) [Compound 435]	100	100		
Cc1ccc(Oc2ccc(CN3CCC(O)(C(c4ccc(OC(F)(F)F)cc4)c4ccc(OC(F)(F)F)cc4)CC3)cc2)nn1 [Compound 255]	100	100		
OC1(C(c2ccc(OC(F)(F)F)cc2)c2ccc(OC(F)(F)F)cc2)CCN(Cc2ccc(-c3ncccn3)cc2)CC1 [Compound 20]	100	100		
OC1(C(c2ccc(OC(F)(F)F)cc2)c2ccc(OC(F)(F)F)cc2)CCN(Cc2ccc(Oc3ncccn3)cc2)CC1 [Compound 19, 4-{bis[4-(trifluoromethoxy)phenyl]methyl}-1-[(4-pyrimidin-2-yloxyphenyl)methyl]piperidin-4-ol]			100	100
OC1(C(c2ccc(OC(F)(F)F)cc2)c2ccc(OC(F)(F)F)cc2)CCN(Cc2ccc(C3OCCCO3)cc2)CC1 [Compound 292]	100	100		
CON=C(Cl)c1ccc(C[N+]2(O)CCC(O)(C(c3ccc(OC(F)(F)F)cc3)c3ccc(OC(F)(F)F)cc3)CC2)cc1.O=C(O)CC(O)(CC(=O)O)C(=O)[O-] (stereo not drawn) [Compound 501]	100	100		
Cc1ccnc(Oc2ccc(CN3CCC(O)(C(c4ccc(OC(F)(F)F)cc4)c4ccc(OC(F)(F)F)cc4)CC3)cc2)c1 [Compound 321]	100	100		
O=C([O-])C12CC3CC(CC(C3)C1)C2.OC1(C(c2ccc(OC(F)(F)F)cc2)c2ccc(OC(F)(F)F)cc2)CC[N+](O)(Cc2ccc(Oc3ccccn3)cc2)CC1 (stereo not drawn) [Compound 511]	100	100		
O=Cc1ccc(CN2CCC(O)(C(O)(c3ccc(OC(F)(F)F)cc3)c3ccc(OC(F)(F)F)cc3)CC2)cc1 [Compound 418]	0	83		
OC1(C(c2ccc(Br)cc2)c2ccc(OC(F)(F)F)cc2)CCN(Cc2ccc(Oc3ccccn3)cc2)CC1 (stereo not drawn) [Compound 261]	100	100		
CC1(C)[C@@H]2CCC1(CS(=O)(=O)[O-])C(=O)C2.CCON=Cc1ccc(C[N+]2(O)CCC(O)(C(c3ccc(OC(F)(F)F)cc3)c3ccc(OC(F)(F)F)cc3)CC2)cc1 (stereo not drawn) [Compound 490]	100	100		

Compound	Percent Mortality [1] [%]	Percent Growth Inhibition [2] [%]	mortality (Heliothis virescens, 120 h, compared to total number of insects infested, read-out: Percent Mortality) [%]	pest or weed control at 0.25 mmol/well (Heliothis virescens, 120 h, inhibition of insect weight relative to untreated controls, read-out: Percent Growth Inhibition) [%]
OC1(C(c2cccc(F)c2)c2cccc(F)c2)CCN(Cc2ccc(Oc3ncccn3)cc2)CC1 [Compound 8]	0	41		
CCOC(=O)COc1ccc(C[N+]2([O-])CCC(O)(C(c3ccc(OC(F)(F)F)cc3)c3ccc(OC(F)(F)F)cc3)CC2)cc1 (stereo not drawn) [Compound 357]	0	100		
[O-][N+]1(Cc2ccc(Oc3ccccc3Cl)cc2)CCC(O)(C(c2ccc(OC(F)(F)F)cc2)c2ccc(OC(F)(F)F)cc2)CC1 (stereo not drawn) [Compound 375]	100	100		
CCCOC(=O)Nc1ccc(C[N+]2([O-])CCC(O)(C(c3ccc(C(F)(F)F)cc3)c3ccc(C(F)(F)F)cc3)CC2)cc1 (stereo not drawn) [Compound 390]	100	100		
CC(C)=CCCC(C)=CCON=Cc1ccc(CN2CCC(O)(C(c3ccc(OC(F)(F)F)cc3)c3ccc(OC(F)(F)F)cc3)CC2)cc1 [Compound 305]	0	31		
Cc1ccc(Oc2ccc(CN3CCC(O)(C(c4ccc(OC(F)(F)F)cc4)c4ccc(OC(F)(F)F)cc4)CC3)cc2)nc1 [Compound 272]	100	100		
CCCOC(=O)Nc1ccc(C[N+]2([O-])CCC(O)(C(c3ccc(OC(F)(F)F)cc3)c3ccc(OC(F)(F)F)cc3)CC2)cc1 (stereo not drawn) [Compound 387]	100	100		
O=C(Nc1ccc(CN2CCC(O)(C(c3ccc(C(F)(F)F)cc3)c3ccc(C(F)(F)F)cc3)CC2)cc1)OCC1CC1 [Compound 319]	100	100		
OC1(C(c2ccc(OC(F)(F)F)cc2)c2ccc(Cl)cc2Cl)CCN(Cc2ccc(Oc3ccccn3)cc2)CC1 (stereo not drawn) [Compound 433]	100	100		
CCON=Cc1ccc(C[N+]2(O)CCC(O)(C(c3ccc(OC(F)(F)F)cc3)c3ccc(OC(F)(F)F)cc3)CC2)cc1.O=C([O-])C1CCCCC1 (stereo not drawn) [Compound 493]	100	100		
[O-][N+]1(Cc2ccc(C=NOCC(F)(F)F)cc2)CCC(O)(C(c2ccc(OC(F)(F)F)cc2)c2ccc(OC(F)(F)F)cc2)CC1 (stereo not drawn) [Compound 378]	100	100		
Cc1cccc(Oc2ccc(CN3CCC(O)(C(c4ccc(OC(F)(F)F)cc4)c4ccc(OC(F)(F)F)cc4)CC3)cc2)n1 [Compound 276]	100	100		
OC1(C(c2ccc(Cl)cc2)c2ccc(C(F)(F)F)cc2)CCN(Cc2ccc(Oc3ncccn3)cc2)CC1 (stereo not drawn) [Compound 7]	100	100		
[O-][N+]1(CCOc2ccc(Br)cc2)CCC(O)(C(c2ccc(OC(F)(F)F)cc2)c2ccc(OC(F)(F)F)cc2)CC1 (stereo not drawn) [Compound 482]	100	100		
COc1ccc(C(c2ccc(OC(F)(F)F)cc2)C2(O)CC[N+]([O-])(Cc3ccc(Oc4ccccn4)cc3)CC2)cc1 (stereo not drawn) [Compound 338]	100	100		
[O-][N+]1(Cc2ccc(Oc3ncccn3)cc2)CCC(O)(C(c2ccc(Cl)cc2)c2ccc(OC(F)(F)F)cc2)CC1 (stereo not drawn) [Compound 402]	100	100		
